{
  "source": "patent US4684748A",
  "about": "“Anticonvulsant agents” (Eli Lilly and Company, priority 1985, dated 1987)",
  "note": "Counter-ions that a name gives are not always drawn.",
  "data": [
    {"tested_on": "seizures", "experiment": "not given", "conditions": "man; cited from earlier work", "units": {"plasma level at which seizures are controlled": "µg/mL"}, "values": [
      {"compound": "O=C1NC(=O)C(c2ccccc2)(c2ccccc2)N1", "note": "[phenytoin]", "plasma level at which seizures are controlled": 10}
    ]},
    {"tested_on": "tonic extensor seizures elicited by maximal electroshock", "experiment": "electroshock induced convulsion inhibition assay (E.S.)", "format": "in vivo, Cox standard strain albino male mice", "conditions": "Mus musculus; oral dose (gavage), mice, 0.1 second 50 milliampere corneal electroshock; at the time after dosing providing an optimal response", "text": "The compounds of Formula I are anticonvulsant agents with a high therpeutic ratio and long half-life and are therefore useful in the treatment and prevention of convulsions in mammals. […] The compounds are effective against tonic extensor seizures elicited by maximal electroshock and should therefore be useful for treating generalized tonic-clonic (\"grand mal\"), cortical focal, complex partial (temporal lobe epilepsy), simple partial (focal moor), and post-traumatic seizures in humans. […] In the electroshock induced convulsion inhibition assay (E.S.), the compound to be tested was suspended in acacia and administered by gavage to each of ten Cox standard strain albino male mice (18-24 g) at the dose level being investigated. […] The animals were examined and evaluated immediately after the electroshock for the occurrence of clonic, flexor tonic, or extensor tonic convulsions, or death and the ED50 was determined for each compound as the dose which inhibited the occurrence of extensor tonic convulsions in one half of the animals immediately after the electroshock. For comparison, 18 milliamperes was usually sufficient to produce extensor tonic convulsions in about half of the control animals; at 50 milliamperes, almost all control animals (receiving vehicle only) […]. The test results summarized in Table I are reported as the ED50 values at the time interval found to provide an optimal response after dosing.", "units": {"ED50": "mg/kg"}, "values": [
      {"compound": "Cc1cc(C(=O)NC(C)c2ccccc2)cc(C)c1N", "note": "(racemic) [Example 22, (R,S)-4-amino-3,5-dimethyl-N-(1-phenylethyl)benzamide]", "ED50": 26.7},
      {"compound": "Cc1cc(C(=O)NCc2ccccc2C)ccc1N", "note": "[Example 18, 4-Amino-3-methyl-N-(2-methylbenzyl)benzamide]", "ED50": 16.3},
      {"compound": "Cc1cc(C(=O)NC(C)c2ccccc2)ccc1N", "note": "(racemic) [Example 12, (R,S)-4-amino-3-methyl-N-(1-phenylethyl)benzamide hydrochloride]", "ED50": 20},
      {"compound": "Cc1cc(C(=O)NCc2ccccc2)cc(C)c1N", "note": "[Example 17, 4-Amino-3,5-dimethyl-N-benzylbenzamide]", "ED50": 75},
      {"compound": "Cc1cc(C(=O)N[C@@H](C)c2ccccc2)cc(C)c1N", "note": "[Example 21, (S)-4-amino-3,5-dimethyl-N-(1-phenylethyl)benzamide]", "ED50": 60.5},
      {"compound": "Cc1cc(C(=O)N[C@H](C)c2ccccc2)cc(C)c1N", "note": "[Example 20, (R)-4-amino-3,5-dimethyl-N-(1-phenylethyl)benzamide]", "ED50": 46.8},
      {"compound": "Cc1ccccc1CNC(=O)c1cc(C)c(N)c(C)c1", "note": "[Example 13, 4-Amino-3,5-dimethyl-N-[(2-methylphenyl)methyl]benzamide]", "ED50": 20},
      {"compound": "Cc1cc(C(=O)Nc2c(C)cccc2C)ccc1N", "note": "[Example 14, 4-Amino-N-(2,6-dimethylphenyl)-3-methylbenzamide]", "ED50": 3.8},
      {"compound": "Cc1cc(C(=O)Nc2c(C)cccc2C)cc(C)c1N", "note": "[Example 15, 4-Amino-N-(2,6-dimethylphenyl)-3,5-dimethylbenzamide]", "ED50": 5.6},
      {"compound": "Cc1cc(C(=O)Nc2ccccc2C)ccc1N", "note": "[Example 16, 4-Amino-3-methyl-N-(2-methylphenyl)benzamide]", "ED50": 5.4},
      {"compound": "Cc1cc(C(=O)NCc2ccccc2)ccc1N.Cl", "note": "[Example 19, 4-Amino-3-methyl-N-benzylbenzamide hydrochloride]", "ED50": 9.6}
    ]}
  ]
}
